Assay results published in patent US20220298540A1, “METHOD AND REAGENTS FOR DETECTING LUCIFERASE ACTIVITY” (OBSCHESATVO S OGRANICHENNOY OTVETSTVENNOSTYU "PLANTA", priority 2019, published 2022).

Tests used:
[1] = system: Odontosyllis undecimdonta worm luciferase; assay: Detecting bioluminescence in cold extracts of Odontosyllis undecimdonta worms; format: biochemical; details: 1 μg in 100 μl tris-buffered saline pH 7.5, aliquots added to cold worm extracts; FIG. 12, FIG. 13
Description: Adding 5 ml of phosphate buffer (5 mM sodium phosphate buffer, pH 7.4) to 200 mg of lyophilized worms. Pipetting the mixture into liquid nitrogen to create small drops of frozen material, then grounding them in a mortar. Adding the frozen powder to 15 ml of phosphate buffer (5 mM sodium phosphate buffer, pH 7.4) and incubating for 40 minutes in an ice bath while stirring regularly. Centrifuging the mixture at 40,000 g (4° C.) for 40 min. Collecting the supernatant comprising luciferase, luciferin and oxyluciferin, freezing the cell-free extract and storing at −70° C. […] Extracts of Odontosyllis undecimdonta worms were used as biological samples. […]

[2] = system: highly purified luciferase; assay: In vitro bioluminescence reaction, conversion of luciferin into oxyluciferin with highly purified luciferase; format: biochemical, Odontosyllis undecimdonta; details: 60 μL pure luciferin fraction, 40 μL tris-buffered saline, 20 μL highly purified luciferase; no luminescence in control tube
Description: Each tube contained 60 μL of pure luciferin fraction, 40 μL of tris-buffered saline and 20 μL of highly purified luciferase (see section below) or tris-buffered saline in case of negative control. […] The reaction was monitored by using 5 μl aliquots of the reaction and control mixtures, followed by stopping the reaction in 0, 5, 15, 30, 60, 120, 180, and 300 min by adding 20 μl of methanol and centrifugation, after that, the reversed-phase HPLC was used to analyze the supernatants. A Shim-Pack XR-ODS column (3.0×75 mm, 2.2 μm) was used in combination with a Nexera X2 system (Shimadzu, Japan). Solvent A is a 0.1% formic acid solution, pH 4.9, solvent B is acetonitrile. Elution was carried out in a linear gradient with the solvent B concentration from 1 to 20% (15 min) at a flow rate of 0.7 ml/min. Purified luciferase samples were obtained as a result of sequential purification of an aqueous extract of lyophilized worms: ion-exchange chromatography in a HiTrap Fast Flow column with DEAE-Sepharose (GE Healthcare, Uppsala, Sweden), ultrafiltration in an Amicon® Ultra centrifugal filter (Merck Millipore, Germany) and gel filtration chromatography in a Superdex 200 column ([…]).

[3] = Storage stability of freeze-dried substrate; format: physicochemical; details: −20° C.
Text: This new luciferin isolated by the present inventors has a unique structure that distinguishes it from all previously described natural luciferins. Thus, the basis of the Odontosyllis worm luciferin molecule is a condensed heterocycle—thieno[3,2-f]thiochromene consisting of two six-membered and one five-membered rings. Such complex condensed tricyclic structures have not previously been found as bioluminescent reaction substrates. It is also worth noting that thiopyran is named in the composition of natural bioluminescent substrates for the first time. Odontosyllis worm luciferin is a strongly polar molecule and represents a strong acid, since this molecule comprises three carboxyl substituents and also carries a sulfonic acid residue. Freeze-dried substrate is stored at −20° C. without decrease in activity for at least 30 days, more often at least 60 days, normally at least a year.

[4] = Effect of light on luciferin; format: physicochemical; details: confirmed experimentally
Text: Formation of bioluminescence depends on the amount and preservation of luciferase in biological samples.

[5] = system: recombinant luciferase Odontosyllis undecimdonta; assay: Detecting luciferase in lysates of mammalian cells comprising recombinant luciferase; details: 1 μg in 100 μl tris-buffered saline pH 7.5, aliquots added to cell lysates with recombinant luciferase; FIG. 11
Description: Recombinant luciferase was obtained from luciferase complementary DNA synthesized as a linear double-stranded DNA fragment (Twist Biosciences, USA). Cloning was performed using the Golden Gate method. Eukaryotic cell expression plasmids were assembled into the plasmid of the MoClo pICH47742 kit as a backbone, and the following parts were cloned in level 0 vectors: cytomegalovirus promoter, luciferase candidate gene, termination codon comprising a part of DNA, and SV40 polyadenylation terminator. HEK293NT cells were transfected with FuGene 6 reagent plasmid (Promega, Fitchburg, Wis., USA) according to the manufacturer's protocol. The transfected cells were grown under standard conditions.
Lysates of mammalian cells comprising recombinant luciferase Odontosyllis undecimdonta were used as biological samples. Cell lysates were obtained as described above in the section “Obtaining native luciferase and recombinant luciferase samples”.

SMILES | luminescence of biological samples [1] | radiation (luminescence) in the course of the reaction [2] | storage without decrease in activity [3] | effect of light emission, especially the UV part of the spectrum [4] | luminescence of biological samples [5]
O=C(O)C1=Cc2c(c(OS(=O)(=O)O)c(O)c3scc(C(=O)O)c23)SC1C(=O)O (stereo not drawn) [luciferin, 4-hydroxy-5-(sulfooxy)-7H-thieno[3,2-f]thiochromen-1,7,8-tricarboxylic acid] | detected | Radiation was observed | at least 30 days | degradation and loss of functionality | detected
O=C(O)C(=O)C1=C(C(=O)O)Cc2c(c(OS(=O)(=O)O)c(O)c3scc(C(=O)O)c23)S1 [pre-luciferin, 7-(carboxycarbonyl)-4-hydroxy-5-(sulfooxy)-9H-thieno[3,2-f]thiochromene-1,8-dicarboxylic acid] | detected | – | – | – | –
